Entries after “also recorded” stand apart in the source; their conditions may differ.
Legend:
[1] = mice; cited from earlier work
A2Cs of IL-17A^−/− mice = assay: Tobacco smoke exposure of IL-17A-/- mice; format: in vivo, mouse; settings: 20 weeks TS; for IHC Trf1 or Trf2 antigen staining: IL-17A-deficient mice
Method: Mouse models and CSP7 treatment. All experiments involving mice were performed according to the approved protocols under the guidelines of Institutional Animal Care and Use Committee. Wild type (WT), and PAI-1^−/− and uPA^−/− mice of C57BL/6 background purchased from Jackson Laboratory (Bar Harbor, ME) were used for the experiments. IL-17A^−/− mice were obtained from University of Tokyo, Japan.
To test the effect of chronic TS exposure induced lung injury, these mice were exposed to passive TS from 40 research cigarettes over a 4 h period 5 days/week for 20 weeks (˜90 mg/m3 total solid particulates) using a mechanical smoking chamber (Teague Enterprises, Davis, CA) as described earlier. (Bhandary et al, 2015). Control mice were kept in ambient air. After sixteen weeks of daily passive TS exposure, mice with TS exposure injury were treated with CSP7 at a dosage of 1.5 mg/kg body weight daily 5 days/week for the next four weeks. These mice were continued with daily exposure of 4 h of TS during CSP7 treatment. At the end of the experiment (after 20 weeks of TS exposure), the mice were euthanized, and lungs were utilized for further analyses. To expand the local delivery options of CSP7 to directly treat the damaged lung by air-jet milling for dry powder inhalation (DPI). Mice exposed to TSE were treated with CSP7 using a rotating brush generator for 15 min daily for 7 days. Fourteen days later, BLM mice were subjected to daily inhalation of micronized CSP7 (0.05 mg/kg/d) DP through air-jet-milling for seven consecutive days using a rotating brush exposure system. The rotating brush exposure system gave a consistent minimal chamber concentration of 0.1 mg/L. In order to match dosing of DP inhalation, animal exposure times were adjusted to approximately 15 minutes and an estimated dose of 0.05 mg/kg/d or 1.00 microgram/lung was administered.

[2] = tested on: AT2 cells from COPD lung tissues; assay: AT2 cells isolated from COPD lung tissues treated in vitro; format: cell-based, human
Method: Ex vivo studies using human lung tissues without patient identity was approved by the Institutional (UTHSCT) Review Board (IRB) through exempt protocol #12-003. nL and COPD tissues (n=4-5) were treated with or without CSP7 for 72 h ex vivo as described previously (Marudamuthu et al, 2019). Total protein and RNA extracted from the lung tissues were analyzed by Western blotting and qPCR for MUC5AC protein and mRNA, respectively. In separate experiments, AT2 cells isolated from nL and COPD lungs were treated with CSP7 or CP and immunoblotted for changes in senescence or apoptosis, p53, PAI-1 and SP-C expression. Similarly, nL and COPD tissues were treated with or without CSP7 or CP for 72 h ex vivo and AT2 cells isolated from these tissues were analyzed for senescence or apoptosis, p53, PAI-1 and SP-C.

PP2A [3] = assay: PP2A activity assay in AECs and lung tissues from COPD lungs; format: cell-based, human
Method: (§1) PP2A Activity Determination and PP2A Inhibitors PP2A activity was determined using the Millipore PP2A activity assay (17-313; Millipore) (Nath S, et al., Am J Respir Cell Mol Biol. 59:695-705, 2018 December).
(§2) Determination of protein phosphatase 2A (PP2A) activity. PP2A activity was determined in isolated AECs and lung homogenates using the PP2A activity assay kit (Millipore) (Nath et al, Am J Respir Cell Mol Biol 59:695-705, 2018. doi: 10.1165/rcmb.2018-01730C.)

PP2A [4] = biological target: T1, PP2A (Mus musculus, UniProt P63330); assay: PP2A activity assay in lung homogenates of CS exposed WT mice; format: in vivo; settings: WT mice with CS-LI, Neb or IP, 4 weeks
T1 construct: from tissue; host or cells: lung homogenates of WT C57BL/6J mice
Method: as §1, §2

AECs from COPD lungs = AECs from COPD lungs treated in vitro for 48 h; format: cell-based, human
[5] = AT2 cells from COPD tissue, in vitro

T1 sequence (P63330 whole entry): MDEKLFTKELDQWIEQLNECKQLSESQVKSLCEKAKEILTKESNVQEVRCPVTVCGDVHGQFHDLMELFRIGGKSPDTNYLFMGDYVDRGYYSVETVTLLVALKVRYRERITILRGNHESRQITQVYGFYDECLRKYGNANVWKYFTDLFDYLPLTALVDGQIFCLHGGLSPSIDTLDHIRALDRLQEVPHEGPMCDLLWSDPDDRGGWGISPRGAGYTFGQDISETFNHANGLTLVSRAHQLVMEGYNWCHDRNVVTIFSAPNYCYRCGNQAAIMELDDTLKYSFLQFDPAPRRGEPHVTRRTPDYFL

Substance	tolerability [1]	baseline telomerase activity (A2Cs of IL-17A^−/− mice; IL-17A-/- mice)	telomere shortening in A2Cs (A2Cs of IL-17A^−/− mice; IL-17A-/- mice)	IHC Trf1 or Trf2 antigen staining (A2Cs of IL-17A^−/− mice)	SP-C level [2, 5]	p53 and apoptosis [2, 5]	response of AT2 cells from nL tissues ([2]; subjects without COPD)	PP2A activity (PP2A [3]; AECs from COPD lungs, 48 h)	PP2A activity / signaling (PP2A [4])	CIP2A mRNA (AECs from COPD lungs)	MUC5AC, HDAC6, FOXA3, CAV1 and FOXA2 mRNA (qPCR) (AECs from COPD lungs)	co-localization of MUC5AC/HDAC6 and Ac-Tub/LC3 (immunofluorescence) (AECs from COPD lungs)	number of ciliated AECs and cilia length (AECs from COPD lungs)	acridine orange staining of acidic vesicles (late autophagic vacuoles) (AECs from COPD lungs; 6 h)	Cav1 mRNA (qPCR) (AECs from COPD lungs; 48 h)	PP2A activity (PP2A [3]; COPD lung tissues ex vivo, 10 μM, 72 h)
DGIWKASFTTFTVTKYWFYR (listed as Homo sapiens) [CSP, 20 residue caveolin-1 scaffolding domain peptide]	well-tolerated															
FTTFTVT (listed as Homo sapiens) [CSP7, heptapeptide fragment of the caveolin-1 scaffolding domain peptide CSP]	well-tolerated	limited effects on baseline telomerase activity	minimal effect	little change in Trf1 or Trf2 antigen staining	restored baseline SP-C level	marked suppression of p53 and apoptosis	failed to respond to CSP7 treatment	increased activity of PP2AC; also recorded: significantly improved	reversed by CSP7; also recorded: improved PP2A activity	significant suppression of CIP2A mRNA	reversed by CSP7 treatment; also recorded: significantly suppressed	co-localization was reversed	restored	reversed by CSP7; also recorded: marked reduction in red fluorescence	reversed	
WGIDKAFFTTSTVTYKWFRY [CP, scrambled control peptide with the same amino acid composition as CSP, reference compound]			minimal effect	little change in Trf1 or Trf2 antigen staining		remained elevated		failed to increase the PP2A activity	still showed loss of PP2A activity		continued to exhibit elevated levels of MUC5AC, HDAC6, FOXA3, and CAV1 mRNA with low FOXA2 mRNA					minimal effect

Source: patent publication US20240082342A1, “PEPTIDE THERAPEUTICS FOR INCREASING LUNG CELL VIABILITY” (BOARD OF REGENTS, THE UNIVERSITY OF TEXAS SYSTEM, priority 2018, published 2024)
